# Assay results: patent publication US20060128653A1, “Pharmaceutical formulation of decitabine” (priority 2004, published 2006)
# Read-outs that look alike come from different tables or passages of the source.
# Tests used:
# [1] = Solubility in 40% w/w cyclodextrin solutions versus potassium phosphate buffer; assay type: physicochemical; conditions: thermodynamic from solid, room temperature (20-25° C.)
# Protocol: (§1) Aqueous solutions of cyclodextrin at pH 6.7-7.2 were prepared by dissolving 4 parts of cyclodextrins (hydroxypropyl α-cyclodextrin (HPACD), hydroxypropyl β-cyclodextrin (HPBCD), β-cyclodextrin (BCD), hydroxypropyl γ-cyclodextrin (HPGCD), or CAPTISOL) in 6 parts of potassium phosphate buffer (50 mM KH2PO4, pH 7.0), resulting solutions of 40% w/w cyclodextrins.
# as §1, with “(HPBCD),” for “(HPBCD), β-cyclodextrin (BCD),”
# [2] = UV spectroscopy of decitabine-HPBCD complex formation; assay type: physicochemical; conditions: absorbance at 262 nm, room temperature, 1:1 stoichiometry assumed, least-squares fit
# [3] = Chemical stability of decitabine in cyclodextrin solutions (HPLC potency); assay type: physicochemical; conditions: 2-8° C. and 25° C., percentage of total peak areas at 220 nm, FIGS. 1 and 2
# Protocol: The chemical stability of decitabine in the cyclodextrin solutions and in the phophate buffer as prepared above was determined. The initial decitabine concentration for all the solutions was 17-18 mg/mL at the beginning of the experiment at 2-8° C.; 9-10 mg/mL at the beginning of the experiment at 25° C. Decitabine potency was assayed by a HPLC method, and expressed as a percentage of total peak areas at 220 nm.
# [4] = cited from earlier work
# [5] = 40% w/w Captisol aqueous solution, aqueous with cosolvent or surfactant or cyclodextrin, 40% Captisol (w/w, pH 6.7)
# [6] = 40% w/w HPACD aqueous solution, aqueous with cosolvent or surfactant or cyclodextrin, 40% HPACD (w/w, pH 7.0)
# [7] = 40% w/w HPBCD aqueous solution, aqueous with cosolvent or surfactant or cyclodextrin, 40% HPBCD (w/w, pH 7.2)
# [8] = potassium phosphate buffer, aqueous buffer, KPi (50 mM KH2PO4, pH 7.0)
"solubility [1, 5] [mg/mL]","solubility [1, 6] [mg/mL]","solubility [1, 7] [mg/mL]","solubility ([1]; 40% w/w HPGCD aqueous solution, aqueous with cosolvent or surfactant or cyclodextrin, 40% HPGCD (w/w, pH 7.0)) [mg/mL]","solubility [1, 8] [mg/mL]",Complex formation constant Kf for decitabine-HPBCD complex [2] [M⁻¹],Stability of decitabine in aqueous solution with cyclodextrins as excipients [3],SMILES,Steady-state plasma concentration (estimated) ([4]; 6-hour infusion of 100 mg/m^2) [µg/mL],Range of plasma concentrations ([4]; 600-mg/m^2 infusion) [µg/mL],"Terminal half-life ([4]; humans, measured by bioassay) [min]",Half-life after discontinuing the infusion ([4]; humans) [min],"Total urinary excretion, % of the administered dose ([4]; humans)",Volume of distribution ([4]; humans),Steady-state plasma concentration (estimated) ([4]; infusion rate of 1 mg/kg/h) [µg/mL],"Plasma concentration ([4]; infusion times of 40-60 hours, infusion rate 1 mg/kg/h) [ng/mL]","Penetration into the cerebrospinal fluid, % of the plasma concentration ([4]; man, end of a 36-hour intravenous infusion)","Plasma concentration ([4]; patients, 100 mg/m^2 as a 3-hour infusion)"
26,20,26,22,19,–,–,Nc1ncn([C@@H]2O[C@H](CO)[C@@H](O)[C@H]2O)c(=O)n1 [5-azacytidine],–,–,–,–,–,–,–,–,–,–
42,18,44,–,18,23,dramatically improve the stability,"Nc1ncn([C@H]2C[C@H](O)[C@@H](CO)O2)c(=O)n1 [decitabine, 5-aza-2′-deoxycytidine]",0.31 to 0.39,0.41 to 16,10 to 35,12 to 20,less than 1%,about 4.6 L/kg,0.2 to 0.5,430 to 760,14-21%,about 0.4 μg/ml
